{"source": "ChEMBL document CHEMBL1649471", "about": "“Nonhuman primates are protected from smallpox virus or monkeypox virus challenges by the antiviral drug ST-246” (2009)", "key": {"Variola virus [1]": {"test_system": "Variola virus", "test": "Antiviral activity against 1X10'8 PFU Variola virus Harper infected in cynomolgus monkey assessed as temperature change in animal at 300 mg/kg/day, po administered 1 day post infection followed by 5 ml/kg of 30% suspension of hydrated homogenized monkey biscuit measured 11 days post infection", "assay_type": "functional"}, "Variola virus [2]": {"test_system": "Variola virus", "test": "Antiviral activity against 1X10'8 PFU Variola virus Harper infected in cynomolgus monkey assessed as aspartate amino transferase level in animal at 300 mg/kg/day, po administered immediately after infection followed by 5 ml/kg of 30% suspension of hydrated homogenized monkey biscuit measured 11 days post infection", "assay_type": "functional"}, "Variola virus [3]": {"test_system": "Variola virus", "test": "Antiviral activity against 1X10'8 PFU Variola virus Harper infected in cynomolgus monkey assessed as creatinine level in animal at 300 mg/kg/day, po administered 1 day post infection followed by 5 ml/kg of 30% suspension of hydrated homogenized monkey biscuit measured 9 days post infection", "assay_type": "functional"}, "Cynomolgus monkey": {"test_system": "Cynomolgus monkey", "test": "Immunostimulatory activity in cynomolgus monkey infected with 1X10'8 PFU Variola virus Harper assessed as level of IgM at 300 mg/kg/day, po followed by 5 ml/kg of 30% suspension of hydrated homogenized monkey biscuit measured on day 7 by ELISA", "assay_type": "functional, organism-based", "conditions": "Macaca fascicularis"}, "Variola virus [4]": {"test_system": "Variola virus", "test": "Antiviral activity against 1X10'8 PFU Variola virus Harper infected in cynomolgus monkey assessed as mean corpuscular hemoglobin concentration in animal at 300 mg/kg/day, po administered 1 day post infection followed by 5 ml/kg of 30% suspension of hydrated homogenized monkey biscuit measured 9 days post infection", "assay_type": "functional"}, "Variola virus [5]": {"test_system": "Variola virus", "test": "Antiviral activity against 1X10'8 PFU Variola virus Harper infected in cynomolgus monkey assessed as creatinine level in animal at 300 mg/kg/day, po administered 1 day post infection followed by 5 ml/kg of 30% suspension of hydrated homogenized monkey biscuit measured 11 days post infection", "assay_type": "functional"}, "Variola virus [6]": {"test_system": "Variola virus", "test": "Antiviral activity against 1X10'8 PFU Variola virus Harper infected in cynomolgus monkey assessed as creatinine level in animal at 300 mg/kg/day, po administered immediately after infection followed by 5 ml/kg of 30% suspension of hydrated homogenized monkey biscuit measured 11 days post infection", "assay_type": "functional"}, "Monkeypox virus [7]": {"test_system": "Monkeypox virus", "test": "Antiviral activity against Monkeypox virus Zaire '79 infected in cynomolgus monkey assessed as inhibition of virus induced skin lesions at 300 mg/kg/day, po administered 24 hrs post infection measured after 14 days", "assay_type": "functional, organism-based"}, "Variola virus [8]": {"test_system": "Variola virus", "test": "Antiviral activity against 1X10'8 PFU Variola virus Harper infected in cynomolgus monkey assessed as temperature change in animal at 300 mg/kg/day, po administered immediately after infection followed by 5 ml/kg of 30% suspension of hydrated homogenized monkey biscuit measured 11 days post infection", "assay_type": "functional"}, "Variola virus [9]": {"test_system": "Variola virus", "test": "Antiviral activity against 1X10'8 PFU Variola virus Harper infected in cynomolgus monkey assessed as platelet count in animal at 300 mg/kg/day, po administered 1 day post infection followed by 5 ml/kg of 30% suspension of hydrated homogenized monkey biscuit measured 9 days post infection", "assay_type": "functional"}, "Variola virus [10]": {"test_system": "Variola virus", "test": "Antiviral activity against 1X10'8 PFU Variola virus Harper infected in cynomolgus monkey assessed as decrease in blood viral load at 300 mg/kg/day, po administered immediately post infection followed by 5 ml/kg of 30% suspension of hydrated homogenized monkey biscuit measured up to 28 days", "assay_type": "functional, organism-based"}, "Monkeypox virus [11]": {"test_system": "Monkeypox virus", "test": "Antiviral activity against Monkeypox virus Zaire '79 infected in cynomolgus monkey assessed as inhibition of virus induced skin lesions at 300 mg/kg/day, po administered 72 hrs post infection measured after 14 days", "assay_type": "functional, organism-based"}, "Variola virus [12]": {"test_system": "Variola virus", "test": "Antiviral activity against 1X10'8 PFU Variola virus Harper infected in cynomolgus monkey assessed as percent hematocrit level in animal at 300 mg/kg/day, po administered immediately after infection followed by 5 ml/kg of 30% suspension of hydrated homogenized monkey biscuit measured 11 days post infection", "assay_type": "functional"}, "Variola virus [13]": {"test_system": "Variola virus", "test": "Antiviral activity against 1X10'8 PFU Variola virus Harper infected in cynomolgus monkey assessed as albumin level in animal at 300 mg/kg/day, po administered immediately after infection followed by 5 ml/kg of 30% suspension of hydrated homogenized monkey biscuit measured 11 days post infection", "assay_type": "functional"}, "Variola virus [14]": {"test_system": "Variola virus", "test": "Antiviral activity against 1X10'8 PFU Variola virus Harper infected in cynomolgus monkey assessed as mean corpuscular hemoglobin concentration in animal at 300 mg/kg/day, po administered 1 day post infection followed by 5 ml/kg of 30% suspension of hydrated homogenized monkey biscuit measured 11 days post infection", "assay_type": "functional"}, "Variola virus [15]": {"test_system": "Variola virus", "test": "Antiviral activity against 1X10'8 PFU Variola virus Harper infected in cynomolgus monkey assessed as survival of animal at 300 mg/kg/day, po administered immediately post infection followed by 5 ml/kg of 30% suspension of hydrated homogenized monkey biscuit measured up to 28 days", "assay_type": "functional, organism-based"}, "Variola virus [16]": {"test_system": "Variola virus", "test": "Antiviral activity against 1X10'8 PFU Variola virus Harper infected in cynomolgus monkey assessed as log decrease in blood viral load at 300 mg/kg/day, po administered immediately post infection followed by 5 ml/kg of 30% suspension of hydrated homogenized monkey biscuit measured between day 5 to 8", "assay_type": "functional"}, "Variola virus [17]": {"test_system": "Variola virus", "test": "Antiviral activity against 1X10'8 PFU Variola virus Harper infected in cynomolgus monkey assessed as percent hematocrit level in animal at 300 mg/kg/day, po administered 1 day post infection followed by 5 ml/kg of 30% suspension of hydrated homogenized monkey biscuit measured 11 days post infection", "assay_type": "functional"}, "Variola virus [18]": {"test_system": "Variola virus", "test": "Antiviral activity against 1X10'8 PFU Variola virus Harper infected in cynomolgus monkey assessed as […] level in animal at 300 mg/kg/day, po administered 1 day post infection followed by 5 ml/kg of 30% suspension of hydrated homogenized monkey biscuit measured 11 days post infection", "assay_type": "functional"}, "Variola virus [19]": {"test_system": "Variola virus", "test": "Antiviral activity against 1X10'8 PFU Variola virus Harper infected in cynomolgus monkey assessed as alanine amino transferase level in animal at 300 mg/kg/day, po administered 1 day post infection followed by 5 ml/kg of 30% suspension of hydrated homogenized monkey biscuit measured 11 days post infection", "assay_type": "functional"}, "Variola virus [20]": {"test_system": "Variola virus", "test": "Antiviral activity against 1X10'8 PFU Variola virus Harper infected in cynomolgus monkey assessed as alanine amino transferase level in animal at 300 mg/kg/day, po administered immediately after infection followed by 5 ml/kg of 30% suspension of hydrated homogenized monkey biscuit measured 11 days post infection", "assay_type": "functional"}, "Monkeypox virus [21]": {"test_system": "Monkeypox virus", "test": "Antiviral activity against Monkeypox virus Zaire '79 infected in cynomolgus monkey assessed as log decrease in viral load at 300 mg/kg/day, po administered 24 hrs post infection followed by 5 ml/kg of monkey biscuit measured after 14 days", "assay_type": "functional"}, "Monkeypox virus [22]": {"test_system": "Monkeypox virus", "test": "Antiviral activity against Monkeypox virus Zaire '79 infected in cynomolgus monkey assessed as log decrease in viral load at 300 mg/kg/day, po administered 72 hrs post infection measured after 14 days", "assay_type": "functional"}, "Variola virus [23]": {"test_system": "Variola virus", "test": "Antiviral activity against 1X10'8 PFU Variola virus Harper infected in cynomolgus monkey assessed as decrease in blood viral load at 300 mg/kg/day, po administered 1 day post infection followed by 5 ml/kg of 30% suspension of hydrated homogenized monkey biscuit measured up to 28 days", "assay_type": "functional, organism-based"}, "Variola virus [24]": {"test_system": "Variola virus", "test": "Antiviral activity against 1X10'8 PFU Variola virus Harper infected in cynomolgus monkey assessed as blood urea nitrogen level in animal at 300 mg/kg/day, po administered 1 day post infection followed by 5 ml/kg of 30% suspension of hydrated homogenized monkey biscuit measured 11 days post infection", "assay_type": "functional"}}, "note": "Calls of active or inactive are those of the source. No cut-off for these calls is given here.", "data": [{"smiles": "O=C(NN1C(=O)[C@@H]2[C@@H]3C=C[C@@H]([C@H]4C[C@@H]34)[C@@H]2C1=O)c1ccc(C(F)(F)F)cc1", "note": "[TECOVIRIMAT]", "values": [{"measurement": "Activity", "setting": "Variola virus [1]", "value": 37.3, "unit": "°C"}, {"measurement": "Activity", "setting": "Variola virus [2]", "value": 55, "unit": "U/L"}, {"measurement": "Activity", "setting": "Variola virus [3]", "value": 0.9, "unit": "mg/dL"}, {"measurement": "Activity", "setting": "Cynomolgus monkey", "value": "Active"}, {"measurement": "Activity", "setting": "Variola virus [4]", "value": 30.9, "unit": "g/dL"}, {"measurement": "Activity", "setting": "Variola virus [5]", "value": 0.7, "unit": "mg/dL"}, {"measurement": "Activity", "setting": "Variola virus [6]", "value": 0.73, "unit": "mg/dL"}, {"measurement": "Activity", "setting": "Monkeypox virus [7]", "value": "Active"}, {"measurement": "Activity", "setting": "Variola virus [8]", "value": 38, "unit": "°C"}, {"measurement": "Activity", "setting": "Variola virus [9]", "value": 350, "unit": "×10³ /uL"}, {"measurement": "Activity", "setting": "Variola virus [10]", "value": "Active"}, {"measurement": "Activity", "setting": "Monkeypox virus [11]", "value": "Active"}, {"measurement": "Activity", "setting": "Variola virus [12]", "value": 44.3, "unit": "%"}, {"measurement": "Activity", "setting": "Variola virus [13]", "value": 2.47, "unit": "g/dL"}, {"measurement": "Activity", "setting": "Variola virus [14]", "value": 31.1, "unit": "g/dL"}, {"measurement": "Activity", "setting": "Variola virus [15]", "value": "Active"}, {"measurement": "FC", "setting": "Variola virus [16]", "value": 3}, {"measurement": "Activity", "setting": "Variola virus [17]", "value": 49.6, "unit": "%"}, {"measurement": "Activity", "setting": "Variola virus [18]", "value": 141, "unit": "U/L"}, {"measurement": "Activity", "setting": "Variola virus [19]", "value": 60.3, "unit": "U/L"}, {"measurement": "Activity", "setting": "Variola virus [20]", "value": 49.7, "unit": "U/L"}, {"measurement": "FC", "setting": "Monkeypox virus [21]", "value": 5}, {"measurement": "FC", "setting": "Monkeypox virus [22]", "value": 5}, {"measurement": "Activity", "setting": "Variola virus [23]", "value": "Active"}, {"measurement": "Activity", "setting": "Variola virus [24]", "value": 18.7, "unit": "mg/dL"}]}]}
